Measurements published in publication PMC11865921, “Effect of mono-guanidine-like derivatives on platelet aggregation and tumour cell induced platelet aggregation” (RSC Medicinal Chemistry, 2025).
pKi: −log10 of the molar value. Where two headings read alike, the source gives them in different places.

Assays:
sigma σ1 receptor = target: T1, sigma σ1 receptor; experiment: PDSP radioligand competition binding
T1 construct: gene SIGMAR1; PDSP has often used guinea pig or rat tissue for sigma1
Excerpt: PDSP radioligand competition binding on sigma σ1 receptor

sigma σ2 receptor = target: T2, sigma σ2 receptor; experiment: PDSP radioligand competition binding; conditions: read-out: [drawing 1]
T2 construct: gene TMEM97; PDSP has often used rat PC12 cells or guinea pig tissue for sigma2
Excerpt: PDSP radioligand competition binding on sigma σ2 receptor

pKi (sigma σ1 receptor; read-out: [drawing 1])	pKi (sigma σ2 receptor)	Structure (SMILES)	pKi (sigma σ1 receptor; read-out: [drawing 2])
6.58	6.26	N=C(N)Nc1ccc2c(n1)CCCC2 [compound 1]	
		c1cc2c(nc1NC1=NCCN1)CCCC2 [compound 2]	6.75
